According to BindingDB's records for doi:10.1021/acs.jmedchem.9b00061 (Ajou University, 2019):
pKd: −log10 of the molar value. Where a SMILES comes first, the peptide text is derived from it. Bridges are numbered along the chain shown (N, C = ends).

Target: Toll-like receptor 4 (Homo sapiens, UniProt O00206)
Test: Binding affinity to recombinant human TLR4 assessed as dissociation constant up to 200 uM by surface plasmon resonance analysis

Chain of Toll-like receptor 4 (O00206 whole entry): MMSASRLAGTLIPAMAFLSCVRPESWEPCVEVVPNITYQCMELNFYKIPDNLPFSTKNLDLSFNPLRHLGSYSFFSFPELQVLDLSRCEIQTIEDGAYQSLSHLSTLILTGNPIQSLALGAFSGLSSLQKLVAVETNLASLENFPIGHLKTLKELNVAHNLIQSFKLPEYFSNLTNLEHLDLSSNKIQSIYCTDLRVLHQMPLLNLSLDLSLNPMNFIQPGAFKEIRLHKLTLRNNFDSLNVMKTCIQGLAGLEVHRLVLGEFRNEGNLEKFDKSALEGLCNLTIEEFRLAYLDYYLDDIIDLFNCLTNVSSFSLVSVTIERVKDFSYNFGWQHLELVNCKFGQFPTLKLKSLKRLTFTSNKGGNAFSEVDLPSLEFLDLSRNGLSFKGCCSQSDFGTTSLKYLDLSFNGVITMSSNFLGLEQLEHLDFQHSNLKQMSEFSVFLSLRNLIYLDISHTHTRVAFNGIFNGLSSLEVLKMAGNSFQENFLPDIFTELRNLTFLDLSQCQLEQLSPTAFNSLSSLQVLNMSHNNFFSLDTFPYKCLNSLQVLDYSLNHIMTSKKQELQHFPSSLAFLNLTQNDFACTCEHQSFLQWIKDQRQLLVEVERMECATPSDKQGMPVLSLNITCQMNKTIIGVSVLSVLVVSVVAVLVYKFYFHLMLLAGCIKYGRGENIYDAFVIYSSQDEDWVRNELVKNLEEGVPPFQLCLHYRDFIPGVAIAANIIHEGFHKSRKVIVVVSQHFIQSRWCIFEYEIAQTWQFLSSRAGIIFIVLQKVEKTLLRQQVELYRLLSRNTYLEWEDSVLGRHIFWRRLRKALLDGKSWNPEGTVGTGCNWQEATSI

| pKd | Compound |
| --- | --- |
| 8.85 | CC[C@H](C)[C@@H]1NC(=O)[C@H](Cc2c[nH]c3ccccc23)NC(=O)[C@H](Cc2c[nH]c3ccccc23)NC(=O)[C@@H](NC(=O)[C@H](CO)NC(=O)[C@H](Cc2ccccc2)NC(=O)[C@@H](NC(=O)CNC(=O)[C@@H](N)CC(C)C)C(C)C)CC(=O)NCCCC[C@@H](C(=O)N[C@@H](CC(C)C)C(=O)N[C@H](C(=O)O)C(C)C)NC1=O (H-LGVFSDWWIKLV-OH; lactam 6-10) |
| 8.96 | H-LGVFSSWWIKLV-OH |
